From patent publication US10899733B2, “Inhibitors of PARPs that catalyze mono-ADP-ribosylation” (OREGON HEALTH & SCIENCE UNIVERSITY, priority 2017, dated 2021)
Values joined by “and” are separate entries in the source; they are usually repeats but may differ in a detail not shown here. Equal entries are not always repeated.

How the values were obtained:
PARP11 = target: T1, PARP11 (Homo sapiens, UniProt Q9NR21); assay: Inhibition of PARP11-mediated ADP-ribosylation of SRPK2 using NAD+ (100 μM); type: biochemical; conditions: for IC50 / PARP11 pIC50 ± S.E.M.: ADP-ribosylation of SRPK2, NAD+ 100 μM
T1 sequence (Q9NR21 1-338): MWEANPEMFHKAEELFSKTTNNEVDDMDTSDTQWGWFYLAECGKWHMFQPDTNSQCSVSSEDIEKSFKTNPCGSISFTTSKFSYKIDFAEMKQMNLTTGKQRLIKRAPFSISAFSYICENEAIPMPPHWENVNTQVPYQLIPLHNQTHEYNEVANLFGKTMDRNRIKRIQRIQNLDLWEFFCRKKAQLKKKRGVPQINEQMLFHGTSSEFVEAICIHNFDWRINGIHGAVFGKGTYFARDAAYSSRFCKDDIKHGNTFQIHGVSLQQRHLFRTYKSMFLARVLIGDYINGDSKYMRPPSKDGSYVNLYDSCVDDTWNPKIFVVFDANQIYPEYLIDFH

PARP10cat = target: T2, PARP10cat (Homo sapiens, UniProt Q53GL7); assay: Inhibition of PARP10cat-mediated ADP-ribosylation of SRPK2 using NAD+ (100 μM); type: biochemical; conditions: for IC50 / PARP10cat pIC50 ± S.E.M.: ADP-ribosylation of SRPK2, NAD+ 100 μM; for PARP11/PARP10: ratio of IC50 values, PARP11 over PARP10cat; for increase in potency for PARP10 compared to comparator compound: 8 and 3 compared to unsubstituted 1, 14 compared to 3; for improvement in selectivity for PARP10 over PARP11 compared to parent compound: 12 vs 8, 14 vs 3, 20, 22 vs 16, 23, 24 vs 15
T2 sequence (Q53GL7 806-1025 limits assumed): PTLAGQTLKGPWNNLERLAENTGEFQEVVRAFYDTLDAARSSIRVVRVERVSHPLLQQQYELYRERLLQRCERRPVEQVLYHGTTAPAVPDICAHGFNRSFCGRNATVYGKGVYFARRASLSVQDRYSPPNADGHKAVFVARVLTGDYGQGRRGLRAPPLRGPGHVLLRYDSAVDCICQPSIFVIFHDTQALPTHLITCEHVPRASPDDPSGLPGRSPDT

[1] = Aqueous solubility observed when assaying; type: physicochemical; conditions: observed in assays

Structure (SMILES) | IC50 (PARP11) | PARP11 pIC50 ± S.E.M. (PARP11) | IC50 (PARP10cat) | PARP10cat pIC50 ± S.E.M. (PARP10cat) | PARP11/PARP10 (PARP10cat) | selectivity for PARP10 over PARP11 (PARP10cat) | increase in potency for PARP10 compared to comparator compound (PARP10cat) | selectivity for PARP11 over PARP10 (PARP11) | decrease in potency for PARP11 compared to compound 8 (PARP11) | improvement in selectivity for PARP10 over PARP11 compared to parent compound (PARP10cat) | aqueous solubility [1]
O=C1NCCc2c(Br)cccc21 [Compound 2] | 2.9 µM | 5.54 ± 0.04 | 10.1 µM | 4.99 ± 0.04 | 0.29 | – | – | – | – | – | –
Cc1cccc2c1CCNC2=O [Compound 3, 5-methyl-dq] | 2.1 µM | 5.67 ± 0.05 | 8.6 µM | 5.01 ± 0.03 | 0.24 | 0.24 fold | 8 fold | – | – | – | –
O=C1NCCc2c1cccc2-c1ccccc1 [Compound 4] | 1.2 µM | 5.93 ± 0.04 | 35 µM | 4.46 ± 0.04 | 0.03 | – | – | 30 fold | – | – | –
O=C1NCCc2cc(Br)ccc21 [Compound 5] | 13.5 µM | 4.87 ± 0.03 | 17.1 µM | 4.77 ± 0.03 | 0.79 | – | – | – | – | – | –
Cc1ccc2c(c1)CCNC2=O [Compound 6] | 34.1 µM | 4.47 ± 0.06 | 33.1 µM | 4.48 ± 0.04 | 1.0 | – | – | – | – | – | –
O=C1NCCc2cc(Cc3ccccc3)ccc21 [Compound 7] | 16.7 µM | 4.78 ± 0.03 | – | – | <0.33 | – | – | – | – | – | –
O=C1NCCc2cc(-c3ccccc3)ccc21 [Compound 8] | 8.7 µM | 5.06 ± 0.03 | 2.5 µM | 5.61 ± 0.03 | 3.5 | 4 fold | 28 fold | – | – | – | –
O=C1NCCc2cc(-c3cccc(F)c3)ccc21 [Compound 9] | 6.1 µM | 5.22 ± 0.04 | 1.4 µM | 5.85 ± 0.03 | 4.4 | – | – | – | – | – | –
O=C1NCCc2cc(-c3cccc(Cl)c3)ccc21 [Compound 10] | 5.8 µM | 5.24 ± 0.03 | 1.1 µM | 5.95 ± 0.02 | 5.3 | – | – | – | – | – | –
Cc1cccc(-c2ccc3c(c2)CCNC3=O)c1 [Compound 11] | 4.6 µM | 5.34 ± 0.03 | 2.1 µM | 5.67 ± 0.02 | 2.2 | – | – | – | – | – | –
O=C1NCCc2cc(-c3cccc(C(F)(F)F)c3)ccc21 [Compound 12] | 17.4 µM | 4.76 ± 0.04 | 2.3 µM | 5.65 ± 0.03 | 7.6 | 8 fold | – | – | 2 fold | 2 fold | –
Cc1c(-c2ccccc2)ccc2c1CCNC2=O [Compound 14, 5-methyl-6-phenyl-3,4-dihydroisoquinolin-1(2H)-one] | 26.4 µM | 4.58 ± 0.07 | – | 5.80 ± 0.03 | 17 | 17 fold | 5 fold | – | – | 70 fold | aqueous solubility issues at higher concentrations
Cc1c(-c2cccnc2)ccc2c1CCNC2=O [Compound 15, 5-methyl-6-(pyridiny-3-yl)-3,4-dihydroisoquinolin-1(2H)-one] | 30.4 µM | 4.52 ± 0.06 | 2.5 µM | 5.60 ± 0.04 | 12 | 12 fold | – | – | – | – | increased solubility compared to 14
Cc1c(-c2ccncc2)ccc2c1CCNC2=O [Compound 16, 5-methyl-6-(pyridiny-4-yl)-3,4-dihydroisoquinolin-1(2H)-one] | 21.2 µM | 4.67 ± 0.04 | 1.4 µM | 5.84 ± 0.03 | 15 | 15 fold | – | – | – | – | increased solubility compared to 14
Cc1c(-c2ccc3[nH]ccc3c2)ccc2c1CCNC2=O [Compound 17, 6-(1H-indol-5-yl)-5-methyl-3,4-dihydroisoquinolin-1(2H)-one] | 4.2 µM | 5.38 ± 0.04 | 1.1 µM | 5.96 ± 0.03 | 3.8 | 4 fold | – | – | – | – | –
Cc1c(-c2cnc3[nH]ccc3c2)ccc2c1CCNC2=O [Compound 18, 5-methyl-6-(1H-pyrrolo[2,3-b]pyridin-5-yl)-3,4-dihydroisoquinolin-1(2H)-one] | 12 µM | 4.92 ± 0.05 | 0.71 µM | 6.15 ± 0.03 | 17 | 17 fold | – | – | – | – | –
Cc1c(-c2cnc3ccccc3c2)ccc2c1CCNC2=O [Compound 19, 5-methyl-6-(quinolin-3-yl)-3,4-dihydroisoquinolin-1(2H)-one] | 14 µM | 4.86 ± 0.04 | 1.8 µM | 5.75 ± 0.02 | 7.8 | 8 fold | – | – | – | – | –
Cc1c(-c2ccnc(F)c2)ccc2c1CCNC2=O [Compound 20, 6-(2-fluoropyridin-4-yl)-5-methyl-3,4-dihydroisoquinolin-1(2H)-one] | 44.7 µM | 4.35 ± 0.05 | 1.9 µM | 5.71 ± 0.03 | 24 | 24 fold | – | – | – | ~2 fold | –
Cc1c(-c2ccnc(Cl)c2)ccc2c1CCNC2=O [Compound 21, 6-(2-chloropyridin-4-yl)-5-methyl-3,4-dihydroisoquinolin-1(2H)-one] | 27 µM | 4.57 ± 0.02 | 1.8 µM | 5.76 ± 0.03 | 15 | retained similar selectivity | – | – | – | – | –
Cc1c(-c2cncc(F)c2)ccc2c1CCNC2=O [Compound 23, 6-(5-fluoropyridin-3-yl)-5-methyl-3,4-dihydroisoquinolin-1(2H)-one] | 54.7 µM | 4.23 ± 0.03 | 2.2 µM | 5.66 ± 0.02 | 25 | 25 fold | – | – | – | – | –
Cc1c(-c2cncc(C(F)(F)F)c2)ccc2c1CCNC2=O [Compound 24, 5-methyl-6-(5-(trifluoromethyl)pyridin-3-yl)-3,4-dihydroisoquinolin-1(2H)-on] | 92.1 µM | 4.04 ± 0.03 | – | 5.57 ± 0.03 | 34 | 34 fold and 35 fold | – | – | – | – | –
NC(=O)c1ccc(Oc2ccc(C(N)=O)cc2)cc1 [OUL35, 4,4′-oxydibenzamide, reference compound] | 2.1 µM | 5.68 ± 0.03 | – | – | – | – | – | – | – | – | –
